In PubChem BioAssay AID270 (DTP/NCI, 2004):
Values joined by “and” are separate entries in the source; they are usually repeats but may differ in a detail not shown here. Identical values can stand only once. Results filed as inconclusive are left out. *1 amine or outer side, *2 acyl side, *3 side chain or, on linkers, in order; H or OH if unused. Where a SMILES comes first, the peptide text is derived from it. Bridges are numbered along the chain shown (N, C = ends). Roman numbers before positions name the chains, in order. [ ]: non-standard residue; d: D form. Actinocin(1to9) = Cc1c2oc3c(C)ccc(C(=O)[*:2])c3nc-2c(C(=O)[*:1])c(N)c1=O; NMeV = CN[CH](C(=O)O)C(C)C; Sar = CNCC(=O)O

Tested on: BDF1 mice, s.c. Lewis lung carcinoma, T/C %
Test: NCI In Vivo Anticancer Drug Screen. Data for tumor model Lewis Lung Carcinoma (subcutaneous) in B6D2F1 (BDF1) mice
Procedure, shortened: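 Readout: survival or tumor size, expressed as treated (T) over vehicle control (C). Transplantable tumor implanted in mice; compound given to the treated group.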

Which results are given for `Nc1ncnc2c1ncn2C1OC(CO)CC1O` (stereo not given)?
T/C (endpoint: mean tumor weight, dose: 37.0 mg/kg/injection, schedule: Q01DX011 (ip), vehicle: saline, higher = larger tumour): 101 % of control; T/C (endpoint: mean tumor weight, dose: 75.0 mg/kg/injection, schedule: Q01DX011 (ip), vehicle: saline, higher = larger tumour): 86 % of control

With `Nc1nc2c(ncn2C2OC(CO)C(O)C2N)c(=O)[nH]1` (stereo not given) as the molecule, how does the T/C (endpoint: median survival time, dose: 1.56 mg/kg/injection, schedule: Q01DX009 (ip), vehicle: saline, higher = longer survival) read?
The T/C was 95 % of control.

And the T/C (endpoint: median survival time, dose: 3.12 mg/kg/injection, schedule: Q01DX009 (ip), vehicle: Klucel (hydroxypropylcellulose) (HPC), higher = longer survival)?
Its T/C is 99 % of control.

And the T/C (endpoint: median survival time, dose: 3.13 mg/kg/injection, schedule: Q01DX009 (ip), vehicle: saline, higher = longer survival)?
The T/C was 91 % of control and 104 % of control.

What about the T/C (endpoint: median survival time, dose: 6.25 mg/kg/injection, schedule: Q01DX009 (ip), vehicle: Klucel (hydroxypropylcellulose) (HPC), higher = longer survival) of the same molecule?
Its T/C is 102 % of control.

And the T/C (endpoint: median survival time, dose: 6.25 mg/kg/injection, schedule: Q01DX009 (ip), vehicle: saline, higher = longer survival)?
The T/C was 97 % of control.

And the T/C (endpoint: median survival time, dose: 12.5 mg/kg/injection, schedule: Q01DX009 (ip), vehicle: Klucel (hydroxypropylcellulose) (HPC), higher = longer survival)?
The T/C was 102 % of control.

And the T/C (endpoint: median survival time, dose: 12.5 mg/kg/injection, schedule: Q01DX009 (ip), vehicle: saline with Tween-80, higher = longer survival)?
Its T/C is 95 % of control.

And the T/C (endpoint: median survival time, dose: 12.5 mg/kg/injection, schedule: Q01DX009 (ip), vehicle: saline, higher = longer survival)?
Its T/C is 98 % of control.

And the T/C (endpoint: median survival time, dose: 25.0 mg/kg/injection, schedule: Q01DX009 (ip), vehicle: Klucel (hydroxypropylcellulose) (HPC), higher = longer survival)?
Its T/C is 90 % of control.

And the T/C (endpoint: median survival time, dose: 25.0 mg/kg/injection, schedule: Q01DX009 (ip), vehicle: saline with Tween-80, higher = longer survival)?
Its T/C is 118 % of control.

What about the T/C (endpoint: median survival time, dose: 25.0 mg/kg/injection, schedule: Q01DX009 (ip), vehicle: saline, higher = longer survival) of the same molecule?
The T/C was 94 % of control.

And the T/C (endpoint: median survival time, dose: 50.0 mg/kg/injection, schedule: Q01DX009 (ip), vehicle: saline with Tween-80, higher = longer survival)?
Its T/C is 110 % of control.

`C=CCCCCCCCCC(=O)O` was tested. Which T/C (endpoint: mean tumor weight, dose: 50.0 mg/kg/injection, schedule: Q01DX011 (ip), vehicle: saline, higher = larger tumour) did it give?
The T/C was 92 % of control.

What about the T/C (endpoint: mean tumor weight, dose: 100.0 mg/kg/injection, schedule: Q01DX011 (ip), vehicle: saline, higher = larger tumour) of the same molecule?
Its T/C is 91 % of control.

And the T/C (endpoint: mean tumor weight, dose: 200.0 mg/kg/injection, schedule: Q01DX011 (ip), vehicle: saline, higher = larger tumour)?
The T/C was 56 % of control.

What about the T/C (endpoint: mean tumor weight, dose: 400.0 mg/kg/injection, schedule: Q01DX011 (ip), vehicle: saline, higher = larger tumour) of the same molecule?
The T/C was 84 % of control.

`CCn1cnc2c(=S)nc(N)[nH]c21` was tested. Which T/C (endpoint: mean tumor weight, dose: 3.8 mg/kg/injection, schedule: Q01DX011 (ip), vehicle: other, higher = larger tumour) did it give?
Its T/C is 81 % of control.

And the T/C (endpoint: mean tumor weight, dose: 7.5 mg/kg/injection, schedule: Q01DX011 (ip), vehicle: other, higher = larger tumour)?
Its T/C is 63 % of control.

What about the T/C (endpoint: mean tumor weight, dose: 15.0 mg/kg/injection, schedule: Q01DX011 (ip), vehicle: other, higher = larger tumour) of the same molecule?
Its T/C is 17 % of control.

With `NC(=O)N(CCCl)N=O` as the molecule, how does the T/C (endpoint: mean tumor weight, dose: 0.63 mg/kg/injection, schedule: Q01DX011 (ip), vehicle: saline, higher = larger tumour) read?
Its T/C is 80 % of control.

What about the T/C (endpoint: mean tumor weight, dose: 1.25 mg/kg/injection, schedule: Q01DX011 (ip), vehicle: saline, higher = larger tumour) of the same molecule?
Its T/C is 53 % of control.

What about the T/C (endpoint: mean tumor weight, dose: 2.5 mg/kg/injection, schedule: Q01DX011 (ip), vehicle: saline, higher = larger tumour) of the same molecule?
Its T/C is 10 % of control.

And the T/C (endpoint: median survival time, dose: 1.0 mg/kg/injection, schedule: Q01DX001 (ip), vehicle: saline + alcohol, higher = longer survival)?
Its T/C is 120 % of control.

Which results are given for `O=P(O)(NCCCl)NCCCl`?
T/C (endpoint: median survival time, dose: 12.5 mg/kg/injection, schedule: Q01DX001 (ip), vehicle: saline, higher = longer survival): 114 % of control and 115 % of control; T/C (endpoint: median survival time, dose: 25.0 mg/kg/injection, schedule: Q01DX001 (ip), vehicle: saline, higher = longer survival): 113 % of control and 114 % of control; T/C (endpoint: median survival time, dose: 100.0 mg/kg/injection, schedule: Q01DX001 (ip), vehicle: saline, higher = longer survival): 200 % of control and 243 % of control

`CN(N=O)C(=O)NC1CCOCC1` was tested. Which T/C (endpoint: median survival time, dose: 475.0 mg/kg/injection, schedule: Q01DX001 (ip), vehicle: saline with Tween-80, higher = longer survival) did it give?
Its T/C is 108 % of control.

For `CCC(C)C1NC(=O)C(NC(=O)c2c3nc4c(C(=O)NC5C(=O)NC(C(C)CC)C(=O)N6CCCC6C(=O)N(C)CC(=O)N(C)C(C(C)C)C(=O)OC5C)ccc(C)c4oc-3c(C)c(=O)c2N)C(C)OC(=O)C(C(C)C)N(C)C(=O)CN(C)C(=O)C2CCCN2C1=O` (stereo not given) (I: TIP[Sar][NMeV] / II: TIP[Sar][NMeV]; ester I:1-I:C, II:1-II:C; linker I:N-II:N via Actinocin(1to9); configuration not given here), which T/C (endpoint: median survival time, dose: 12.5 micrograms/kg/injection, schedule: Q01DX009 (ip), vehicle: water, higher = longer survival) is on record?
The T/C was 112 % of control.

What about the T/C (endpoint: median survival time, dose: 25.0 micrograms/kg/injection, schedule: Q01DX009 (ip), vehicle: water, higher = longer survival) of the same molecule?
Its T/C is 109 % of control.

What about the T/C (endpoint: median survival time, dose: 50.0 micrograms/kg/injection, schedule: Q01DX009 (ip), vehicle: water, higher = longer survival) of the same molecule?
Its T/C is 115 % of control.

And the T/C (endpoint: median survival time, dose: 75.0 micrograms/kg/injection, schedule: Q04DX003 (ip), vehicle: water, higher = longer survival)?
Its T/C is 105 % of control.

What about the T/C (endpoint: median survival time, dose: 150.0 micrograms/kg/injection, schedule: Q04DX003 (ip), vehicle: water, higher = longer survival) of the same molecule?
Its T/C is 111 % of control.

And the T/C (endpoint: median survival time, dose: 300.0 micrograms/kg/injection, schedule: Q04DX003 (ip), vehicle: water, higher = longer survival)?
The T/C was 116 % of control.
